Format in all cases: cell-based
Assay [1] relates to Streptococcus pyogenes ATCC®19615. In words: Detection of hippuricase activity with 4-HHA, 4-aminoantipyrine and oxidizing reagent. The following applies: Example 6; OD600 0.5-0.6; 10 mM 4-HHA; HRP/H2O2, HRP/Glu/GOD or NaIO4. The method, then: (§1) Streptococcus agalactiae ATCC®12386 and Streptococcus pyogenes ATCC®19615 were cultivated on Columbia Agar with sheep blood (Thermofischer PB5039A) at 37° C. for 48 h.
(§2) Biomass of colonies were suspended in sterile 100 mM phosphate buffer pH 7.4 and the optical density OD600 was set to 0.5-0.6.
(§3) Two hundred μL of cell suspensions were mixed with 25 μL of 100 mM 4-hydroxyhippuric acid (4-HHA, Bachem 4005059) prepared in 100 mM phosphate buffer pH adjusted to 7.4) in a microtiter plate and incubated for 80 min. at 37° C. After incubation, 20 μL of the prepared mixture (12.5×) 4-aminoantipyrine (4-AAP, Merck 06800) and horseradish peroxidase (HRP, Merck 77332), 5 μL of 100 mM H2O2 were added. The absorbance at 505 nm was recorded with a plate reader (SpektraMax M5, Molecular Devices) at room temperature and endpoint of absorbance at 505 nm was evaluated (FIG. 8A). Final concentrations for the assay were 10 mM 4-HHA, 0.5 mM 4-AAP, 4.5 U/mL HRP and 2 mM H2O2.
(§4) Two hundred μL of cell suspension were mixed with 25 μL of 100 mM 4-hydroxyhippuric acid (4-HHA, Bachem 4005059, dissolved in 100 mM phosphate puffer pH 7.4) in microtiter plate and incubated for 1 h at 37° C. […] The absorbance at 505 nm was recorded with a plate reader and endpoint of absorbance at 505 nm was evaluated (FIG. 8B). […]

The subject of assay [2] is Streptococcus agalactiae ATCC®12386. The assay is described as above. The settings on record: Example 6; OD600 0.5-0.6; 10 mM 4-HHA; HRP/H2O2, HRP/Glu/GOD or NaIO4. The procedure:
as §1, §2, §3, §4

Assay [3] has as its system Eschericha coli. In words: Detection of hippuricase activity with 4-HHA, 4-aminoantipyrine, HRP and H2O2. The settings on record: Example 1; OD600 0.9; 5, 10, 20 mM 4-HHA, 70 min 37° C.; 0.5 mM 4-AAP, 4.5 U/mL HRP, 2 mM H2O2. The method, then:
(§5) Campylobacter jejuni DSM 4688 (C. j., catalase positive), Eschericha coli (E. coli, catalase positive) and Campylobacter coli DSM 4689 (C. c., catalase positive), Streptococcus agalactiae ATCC®12386 (S. a., catalase negative) and Streptococcus pyogenes ATCC®19615 (S. p., catalase negative) were cultivated on Columbia Agar with sheep blood (Thermofischer PB5039A) at 37° C. for 48 h, both Campylobacter strains were cultivated under microaerophilic atmosphere (Oxoid, Campylgen CN0025A).
(§6) Biomass of colonies were suspended in sterile phosphate buffer (100 mM, pH 7.4) and the optical density OD was determined and set to OD600 of 0.9.
(§7) Two hundred μL of cell suspensions were mixed with 25 μL of 4-hydroxyhippuric acid (4-HHA, Bachem, 4005059) stock solution, prepared in 100 mM phosphate buffer pH adjusted to 7.4 in a microtiter plate (SpektraMax M5, Molecular Devices) and incubated for 70 minutes at 37° C. After incubation, 20 μL of a prepared mixture (12.5×) 4-aminoantipyrine (4-AAP, Merck 06800) and peroxidase (HRP, Merck 77332) and 5 μL of 100 mM H2O2 were added. The absorbance at 505 nm was recorded with a plate reader at room temperature. Final concentrations for the assay were 5 mM, 10 mM and 20 mM 4-HHA, 0.5 mM 4-AAP, 4.5 U/mL HRP and 2 mM H2O2.

The subject of assay [4] is Campylobacter jejuni DSM 4688. As to the kind of experiment: Detection of hippuricase activity with 4-HHA, 4-aminoantipyrine and oxidizing reagent (color / absorbance at 505 nm). The following applies: for time to plateau of absorbance at 505 nm: HRP/H2O2. The method, then:
as §5, §6, §7
(§8) Biomass of colonies were suspended in sterile 100 mM phosphate buffer pH 7.4 and the optical density OD600 was set to 0.9 and then serially diluted with the same buffer to an OD600 of 0.5, 0.2 and 0.1.
(§9) Two hundred μL of cell suspensions were mixed with 25 μL of 100 mM 4-hydroxyhippuric acid (4-HHA, Bachem 4005059) prepared in 100 mM phosphate buffer pH adjusted to 7.4) in a microtiter plate and incubated for 1 h at 37° C. After incubation, 20 μL of the prepared mixture (12.5×) 4-aminoantipyrine (4-AAP, Merck 06800) and peroxidase (HRP, Merck 77332), 5 μL of 100 mM H2O2 were added. The absorbance at 505 nm was recorded with a plate reader (SpektraMax M5, Molecular Devices) at room temperature. Final concentrations for the assay were 10 mM 4-HHA, 0.5 mM 4-AAP, 4.5 U/mL HRP and 2 mM H2O2.
(§10) Biomass of colonies were suspended in sterile phosphate buffer (100 mM, pH 7.4) and the optical density OD was set to 0.9 and then serially diluted with the same buffer to an OD600 of 0.5, 0.2 and 0.1.
(§11) Two hundred μL of cell suspension were mixed with 25 μL of 100 mM 4-hydroxyhippuric acid (4-HHA, Bachem 4005059, dissolved in 100 mM phosphate puffer pH 7.4) in microtiter plate and incubated for 1 h at 37° C. After incubation, 10 μL of the prepared mixture (25×) 4-aminoantipyrine (4-AAP, Merck 06800) and peroxidase (HRP, Merck 77332), 10 μL of 250 mM glucose (Merck, G8270) and 5 μL of glucose oxidase (GOD, Merck G2133) 50 U/mL were added. The absorbance at 505 nm was recorded with a plate reader. Final concentration of 4-HHA was 10 mM, 4-AAP was 0.5 mM, HRP was 4.5 U/mL, glucose was 10 mM and GOD was 1 U/mL.
Biomass of colonies were suspended, a) 0.2 mL sterile 100 mM phosphate buffer pH 7.4; b) 0.1 mL sterile water (as recommended in manual), c) 0.5 mL saline solution (as recommended in manual). To ensure a proper comparability, the optical density OD600 of all cell suspensions were set to 0.2. In method a) 25 μL of 100 mM 4-hydroxyhippuric acid (4-HHA, Bachem 4005059 prepared in 100 mM phosphate buffer pH adjusted to 7.4) was added to cell suspensions. In methods b) and c), Hippurate disks and Hippurate strips were dropped in cell suspensions as recommended in manual. To ensure a proper comparability, all samples were incubated at 37° C. for 1 h.
After incubation, 10 μL of the prepared mixture (25×) 4-aminoantipyrine (4-AAP, Merck 06800) and peroxidase (HRP, Merck 77332), followed with 5 μL of 100 mM H2O2 were added in samples of method a). Final concentrations for the assay were 10 mM 4-HHA, 0.5 mM 4-AAP, 4.5 U/mL HRP and 2 mM H2O2.

In assay [5] the test system is Campylobacter coli DSM 4689. The assay is described as above. The method, then: as §5, §6, §7, §8, §9, §10, §11
Biomass of colonies were suspended, a) 0.2 mL sterile 100 mM phosphate buffer pH 7.4; b) 0.1 mL sterile water (as recommended in manual), c) 0.5 mL saline solution (as recommended in manual). To ensure a proper comparability, the optical density OD600 of all cell suspensions were set to 0.2. In method a) 25 μL of 100 mM 4-hydroxyhippuric acid (4-HHA, Bachem 4005059 prepared in 100 mM phosphate buffer pH adjusted to 7.4) was added to cell suspensions. In methods b) and c), Hippurate disks and Hippurate strips were dropped in cell suspensions as recommended in manual. […]

The test system of assay [6] is catalase-positive samples (Campylobacter). As to the kind of experiment: Catalase control experiment: chromogenic reaction of p-hydroxybenzoic acid with 4-AAP/HRP/H2O2 in presence of cells. The settings on record: 1 mM 4-HBA, 0.5 mM 4-AAP, 4.5 U/mL HRP, 1 mM H2O2; OD600 0.4 to 0.5; FIG. 2B, FIG. 9. The procedure: In a catalase control experiment, biomass of colonies was suspended in sterile phosphate buffer (100 mM, pH 7.4) and the optical density OD was determined and then serially diluted with the same buffer to an OD600 of 0.4 to 0.5.
One hundred to 150 μL of cell suspension were mixed with 50 to 100 μL of 100 mM phosphate puffer pH 7.4 and 50 μL of the prepared mixture (5×) 4-aminoantipyrine (4-AAP, Merck 06800, 2.5 mM), peroxidase (HRP, Merck 77332, 22.5 U/mL) and 4-hydroxybenzoic acid (4-HBA, Merck H20059, 5 mM, dissolved in 100 mM phosphate puffer pH 7.4) and 5 μL of 50 mM H2O2 were added. The absorbance at 505 nm was recorded with a plate reader (SpektraMax M5, Molecular Devices) at room temperature. Final concentrations for the assay are 1 mM 4-HBA, 0.5 mM 4-AAP, 4.5 U/mL HRP and 1 mM H2O2. (FIG. 2B)
Two hundred μL of cell suspension were mixed with 20 μL of 100 mM phosphate puffer pH 7.4, 5 μL 50 mM and p-4-hydroxybenzoic acid (p-HBA, Merck H20059 dissolved in 100 mM phosphate puffer pH 7.4), 20 μL of mixture 4-aminoantipyridine (Merck 06800, 6.25 mM) and horseradish peroxidase (Merck 77332, 56.3 U/mL), followed by the addition of 5 μL of 50 mM H2O2. The absorbance at 505 nm was recorded with a plate reader (SpektraMax M5, Molecular Devices) at room temperature. Final concentrations for the assay are 1 mM p-4-HBA, 0.5 mM 4-AAP, 4.5 U/mL HRP and 1 mM H2O2. (FIG. 9)

[7] abbreviates: Example 1, OD600 0.9, 5, 10, 20 mM 4-HHA, 70 min 37° C., 0.5 mM 4-AAP, 4.5 U/mL HRP, 2 mM H2O2.

SMILES strings stand for the structures.

As to `O=C(O)CNC(=O)c1ccc(O)cc1` [4-HHA, p-hydroxyhippuric acid], the color of sample entry in assay [1] is given as “colorless or slightly yellowish”; in assay [2] it was “pink color”; in assay [3], “colorless or slightly yellowish”; in assay [4] (setting [7]) it was “robust red to pink color”; in assay [4] (Example 2, OD600 0.1 to 0.9, 10 mM 4-HHA 1 h 37° C., HRP/2 mM H2O2), “robust red to pink color”; in assay [4] (Example 3, OD600 0.1 to 0.9, 10 mM 4-HHA 1 h 37° C., HRP, 10 mM glucose, 1 U/mL GOD), “robust red to pink color”. Moreover, the color of sample result in assay [4] (Example 4 method a), OD600 0.2, 10 mM 4-HHA 1 h 37° C., HRP/2 mM H2O2, few minutes at room temperature) was “significant pink color”; in assay [4] (Example 5, OD600 0.1 to 1.1, 10 mM 4-HHA 1 h 37° C., 2 mM 4-AAP, 2 mM NaIO4), “red to pink color”; in assay [5] (setting [7]), “colorless or slightly yellowish”; in assay [5] (Example 2, all OD600 values 0.1 to 0.9, 10 mM 4-HHA 1 h 37° C., HRP/2 mM H2O2), “colorless or slightly yellowish”; in assay [5] (Example 3, all OD600 values, 10 mM 4-HHA 1 h 37° C., HRP, 10 mM glucose, 1 U/mL GOD) it was “colorless or slightly yellowish”; in assay [5] (Example 4 method a), OD600 0.2, 10 mM 4-HHA 1 h 37° C., HRP/2 mM H2O2), “slightly yellowish”. Moreover, in assay [5] (Example 5, all OD600 values, 10 mM 4-HHA 1 h 37° C., 2 mM 4-AAP, 2 mM NaIO4), the color of sample entry is “colorless or slightly yellowish”. Further, the “time to plateau of absorbance at 505 nm” value in assay [4] (Example 1, FIG. 2A, OD600 0.9) was “about 5 minutes”; in assay [4] (Example 2, FIG. 3, OD600 value of 0.1), “about 10 minutes”.

Regarding `O=C(O)c1ccc(O)cc1` [p-hydroxybenzoic acid], in assay [6], the “time after which the chromogenic reaction stopped (absorbance at 505 nm)” value is reported as “about 5 minutes”.

Values taken from patent publication US20250236901A1, “METHOD OF DETECTING A MICROORGANISM HAVING HIPPURICASE ACTIVITY” (BIOSYNTH AG, priority 2022, published 2025).
